SMILES strings stand for the structures.

Experimental findings from patent publication US6034053A, “EGF-isoflavone conjugates for the prevention of restenosis” (Wayne Hughes Institute, priority 1998, dated 2000) are described below.

The subject of this experiment is vascular injury-induced neointimal hyperplasia. Put plainly: Murine restenosis model: photoactivated rose bengal vascular injury of the femoral artery, histomorphometric analysis. It counts as in vivo, C57B1/6 mice. Particulars: for Stenosis Index (Mean ± SE), neointima/media ratio in areas of maximum neointimal hyperplasia, 4 weeks: 4 weeks after injury, i.p., EGF-Gen 0.1 mg/kg/dose twice daily for 28 days, Gen or quinazolines 2 mg/kg/dose once per day in 10% DMSO. As for the experimental part:
Three to four week old C57 B1/6 male mice (Taconic, Germantown, N.Y.) were housed in micro-isolator cages on a 12-hour day/night cycle and kept for 2 weeks on the Paigen's cocoa butter diet of 15.8% fat, 1.25% cholesterol and 0.5% sodium cholate (Harlan Teklad, Madison, Wis., U.S.A.) to induce high plasma cholesterol levels similar to those of patients with lipid disorders.
Mice were injected with 300 microliters of a 3 mg/ml photoactivated rose bengal solution (Aldrich, Milwaukee, Wis.) in sterile PBS via the tail vein and anesthetized with ketamine/xylazine solution (100 mg ketamine/kg and 5 […]). Photoactivation of rose bengal using percutaneous irradiation with a green light source (300 Watt Xenon arced lamp equipped with a 550 nanometer broad band interference filter, Oriel Scientific, Stratford, Conn.) was performed on the shaved left leg by placing a 3.2 mm glass fiber optic light guide directly into the left femoral vein/artery for 10 minutes. The unirradiated right femoral artery served as an internal control.
Following irradiation the mice were treated for either 14 days or 28 days with intraperitoneal injections of (1) EGF-Gen conjugate or unconjugated EGF (modified EGF not conjugated to genistein) at a dose level of 0. I mg/kg/dose once in the morning and once in the evening; or (2) 2 mg/kg/dose of unconjugated genistein or derivatives of 6,7-dimethoxyquinizalone dissolved in 10% DMSO once per day; or (3) with PBS.
At the times indicated, the animals were euthanized with ketamine/xylazine and perfused with PBS followed by 4% phosphate buffered formalin. PBS and formalin were pumped through the left ventricle of the heart and allowed to exit through a 3 mm incision through the interior wall of the right ventricle. […] Serial sections were examined for areas of maximum neointimal hyperplasia for which the ratios of neointima/media (stenosis index) were determined. […]
All numeric data are shown as mean±SEM. […] Cumulative percentage plots were analyzed using Wilcoxon statistics by Statview, Abacus Concepts, Inc., Berkeley, Calif. […]

`O=c1c(-c2ccc(O)cc2)coc2cc(O)cc(O)c12` [Gen, 5,7,4'-trihydroxyisoflavone, reference compound]: the “Stenosis Index (Mean ± SE), neointima/media ratio in areas of maximum neointimal hyperplasia, 4 weeks” value was 1.03 ± 0.18. Where the note is “listed as unconjugated Gen”, the “Stenosis Index (Mean ± SE), neointima/media ratio in areas of maximum neointimal hyperplasia, 4 weeks” value is reported as 1.03±0.18. The “Effect on neointimal hyperplasia / neointima formation (in words)” value (injured femoral arteries, EGF-Gen at less than 5% of the highest nontoxic dose) is listed as “ineffective”.
